The values that follow come from patent US9505796B2, “Phosphorylated A2A receptor agonists” (Crozet Medical GMBH, priority 2006, dated 2016).

Test [1] deals with T1, A1 receptor rat brain cortical membranes (Rattus norvegicus, UniProt P25099).
T1 construct: A1 receptor rat brain; from tissue; host or cells: rat brain cortical membranes
T1 sequence (P25099 1-326): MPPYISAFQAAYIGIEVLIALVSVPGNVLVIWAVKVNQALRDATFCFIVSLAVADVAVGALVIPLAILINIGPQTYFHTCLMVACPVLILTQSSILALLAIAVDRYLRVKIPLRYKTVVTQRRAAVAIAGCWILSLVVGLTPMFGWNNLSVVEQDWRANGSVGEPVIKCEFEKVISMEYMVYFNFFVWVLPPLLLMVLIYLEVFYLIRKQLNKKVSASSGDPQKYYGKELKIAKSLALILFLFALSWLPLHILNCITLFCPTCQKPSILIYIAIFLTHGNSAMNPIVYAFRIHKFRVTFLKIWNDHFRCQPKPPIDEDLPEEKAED
In words: A1 adenosine receptor radioligand binding vs. [3H]CCPA. As to conditions: rat brain cortical membranes vs. [3H]CCPA (agonist radioligand). From the text:
(§1) Tris was obtained from Acros Organics (Leverkusen, Germany); DMSO was from Fluka (Switzerland), HCl was from Merck, HAT supplement from Gibco. [^3H]CCPA ([^3H]2-chloro-N^6-cyclopentyladenosine), [^3H]MSX-2 ([^3H]3-(3-hydroxypropyl)-7-methyl-8-(m-methoxy-styryl)-1-propargylxanthine) (84 Ci/mmol), and [^3H]DSB-11 ([^3H]8-ethyl-4-methyl-2-phenyl-(8R)-4,5,7,8-tetrahydro-1H-imidazo[2,1-i]-purin-5-one (53 Ci/mmol)) were custom-labeled by Amersham. All other chemical reagents, cell culture materials and adenosine receptor ligands were obtained from Sigma.
(§2) Radioligand binding studies were performed as previously described.^7,8

In test [2] the target is T2, A2A receptor rat brain striatal membranes (Rattus norvegicus, UniProt P30543).
T2 construct: A2A receptor rat brain; from tissue; host or cells: rat brain striatal membranes
In words: A2A adenosine receptor radioligand binding, rat brain striatal membranes.
Source text: as §1, §2

Test [3] deals with T3, A3 receptor human recombinant receptors expressed in CHO cells (Homo sapiens, UniProt P0DMS8).
T3 construct: expressed in transfected cells; host or cells: CHO cells
T3 sequence (P0DMS8 1-318): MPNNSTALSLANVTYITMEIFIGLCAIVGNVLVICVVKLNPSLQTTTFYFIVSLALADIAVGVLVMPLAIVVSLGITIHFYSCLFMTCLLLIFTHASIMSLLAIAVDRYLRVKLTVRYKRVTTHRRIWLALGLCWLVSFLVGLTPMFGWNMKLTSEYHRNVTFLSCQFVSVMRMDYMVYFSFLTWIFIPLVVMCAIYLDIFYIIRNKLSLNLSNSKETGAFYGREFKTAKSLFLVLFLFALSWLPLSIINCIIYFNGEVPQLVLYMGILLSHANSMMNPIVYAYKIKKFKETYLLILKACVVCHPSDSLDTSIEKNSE
Nature of the test: A3 adenosine receptor radioligand binding vs. [3H]PSB-11. Conditions: human recombinant receptors in CHO cells vs. [3H]PSB-11 (antagonist radioligand; agonist affinities underestimated).
Source text: as §1, §2

The target in test [4] is T4, recombinant soluble glutathione-S-transferase/ecto-5′-nucleotidase fusion protein (rat enzyme) (Rattus norvegicus, UniProt P21588).
T4 construct: Catalytically active recombinant soluble glutathione-S-transferase/ecto-5′-nucleotidase fusion protein; Dr. Herbert Zimmermann, University of Frankfurt (gift); host or cells: insect cells, baculovirus system
T4 sequence (P21588 29-551 limits assumed): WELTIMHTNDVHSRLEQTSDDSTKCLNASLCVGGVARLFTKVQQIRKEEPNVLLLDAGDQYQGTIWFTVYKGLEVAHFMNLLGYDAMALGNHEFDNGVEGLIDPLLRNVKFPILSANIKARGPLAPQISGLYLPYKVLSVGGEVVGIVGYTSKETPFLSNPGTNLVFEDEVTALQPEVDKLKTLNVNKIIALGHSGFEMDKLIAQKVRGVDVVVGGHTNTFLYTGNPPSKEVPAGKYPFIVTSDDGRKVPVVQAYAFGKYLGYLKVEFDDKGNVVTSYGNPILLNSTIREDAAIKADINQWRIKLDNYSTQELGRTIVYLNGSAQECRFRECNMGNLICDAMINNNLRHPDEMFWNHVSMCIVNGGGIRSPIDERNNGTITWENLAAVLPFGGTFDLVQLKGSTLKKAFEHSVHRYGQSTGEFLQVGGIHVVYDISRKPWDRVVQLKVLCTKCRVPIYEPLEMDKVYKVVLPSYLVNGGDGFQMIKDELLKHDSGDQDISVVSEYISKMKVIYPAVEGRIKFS
In words: Ecto-5′-nucleotidase substrate specificity assay by capillary electrophoresis. In kind it is biochemical. As to conditions: 500 μM nucleoside 5′-monophosphate, 37° C., 20 min; relative to AMP set at 100%; n = 3. How it is done:
Catalytically active recombinant soluble glutathione-S-transferase/ecto-5′-nucleotidase fusion protein (rat enzyme) was expressed in insect cells using the baculovirus system and purified by affinity chromatography using agarose-coupled GSH as previously described.^6 The enzyme was obtained from Prof. Dr. Herbert Zimmermann, University of Frankfurt.
Compounds were dissolved in DMSO to obtain 5.0 mM stock solutions. These were further diluted to obtain 1 mM solutions in assay buffer (10 mM Hepes, pH 7.4, 2 mM MgCl2, 1 mM CaCl2). The 1 mM solutions were further diluted in the same buffer as required for the standard calibration curves and the enzyme assays.
CE separations were carried out using a P/ACE MDQ system (Beckman Coulter Instruments, Fullerton, Calif., USA) equipped with a DAD detection system. The electrophoretic separations were carried out using an eCAP fused-silica capillary [30 cm (20 cm effective length), ×75 μm internal diameter (I.D), ×375 μm outside diameter (0.D) obtained from Beckman Coulter]. The following conditions were applied: T=25° C., λmax=232 nm, voltage=15 kV, running buffer 40 mM sodium borate buffer, pH 9.1. The capillary was washed with 0.1 M NaOH for 2 min, deionized water for 1 min, and running buffer for 1 min before each injection. Injections were made by applying 0.1 psi of pressure to the sample solution for 30 s. The amount of adenosine or other nucleosides formed was determined. The CE instrument was fully controlled through a personal computer, which operated with the analysis software 32 KARAT obtained from Beckman Coulter. Electropherograms were evaluated using the same software.
Ecto-5′-nucleotidase substrate specificity assays were performed by using capillary electrophoresis method. Enzyme substrate assays were carried out at 37° C. in a final volume of 100 μl. The reaction mixture contained 500 μM of the nucleoside 5′-monophosphate to be investigated dissolved in reaction buffer (10 mM Hepes, pH 7.4, 2 mM MgCl2, 1 mM CaCl2). The reactions were initiated by adding 10 μl of the appropriately diluted enzyme and was then allowed to proceed at 37° C. for 20 min. The reaction was stopped by heating the mixture at 99° C. for 5 min. Aliquots of 50 μl of the reaction mixture were transferred to mini CE vials and injected into the CE instrument under the conditions described above. The absorbance at 232 nm was monitored continuously and the nucleoside concentrations were determined from the area under each absorbance peak. The experiments were repeated twice with triplicate injections. Control experiments were performed in the absence of substrate and in the absence of enzyme in order to take into account the spontaneous hydrolysis of nucleoside-5′ monophosphates under the experimental conditions, which always amounted to less than 1%.
For the quantification of the dephosphorylation reaction products, we applied the internal normalization method. Thus, the individual peak areas reflected directly the relative content of a corresponding analyte. […] It was verified that in fact there were no observable differences in detector response at the used wavelength and thus no additional correction factors had to be employed for the calculation of the amount of product relative to the amount of substrate. This method is also completely independent of the amount of substrate injected into the capillary which represents 100% at zero reaction time.
Besides AMP, other nucleoside 5′-monophosphates (FIG. 1) were investigated as alternative substrates of ecto-5′-NT. All nucleotides (AMP) were used at a concentration of 500 μM in the presence of 2 mM MgCl2, 1 mM CaCl2, 10 mM Hepes, pH, 7.4, and suitably diluted ecto-5′-NT. Some of the nucleoside 5′-monophosphates were efficiently dephosphorylated to the corresponding nucleosides by the enzyme (Table 1).

[5] abbreviates: rat brain striatal membranes vs. [3H]MSX-2 (antagonist radioligand; agonist affinities underestimated).

Several values for one entry are separate records, joined by “and”; a condition that tells them apart may be missing. Equal values may be shown once.

T2 sequence (P30543 whole entry): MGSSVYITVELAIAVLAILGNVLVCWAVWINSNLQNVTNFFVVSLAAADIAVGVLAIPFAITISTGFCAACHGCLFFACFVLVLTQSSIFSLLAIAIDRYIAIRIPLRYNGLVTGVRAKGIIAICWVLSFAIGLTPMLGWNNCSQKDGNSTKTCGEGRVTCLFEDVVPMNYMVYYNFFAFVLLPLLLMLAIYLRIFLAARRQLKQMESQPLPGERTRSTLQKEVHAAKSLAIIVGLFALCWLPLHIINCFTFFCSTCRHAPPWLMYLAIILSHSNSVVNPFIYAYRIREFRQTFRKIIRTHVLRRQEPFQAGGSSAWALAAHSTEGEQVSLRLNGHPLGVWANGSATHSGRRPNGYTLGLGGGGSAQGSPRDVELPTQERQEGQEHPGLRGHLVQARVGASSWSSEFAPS

Take “2-(Benzylthio)adenosine-5′-monophosphate [Compound 8]”: the Ki in test [1] is 0.927 µM; in test [2] (setting [5]), 8.56 µM; in test [3], 0.12 µM. As to “2-(Cyclohexylethylthio)adenosine-5′-monophosphate [Compound 3]”, the Ki in test [3] was 3.6 µM. Still for that read-out and setting: the figure for “2-(Cyclohexylmethylthio)adenosine-5′-monophosphate [Compound 2]” is 1.7 µM.

Consider “2-(Hexylthio)adenosine-5′-monophosphate [Compound 6]”, for which the Ki was 0.256 µM in test [1], 1 µM in test [2] (setting [5]) and 2.3 µM in test [3].

Take “2-(Phenylethylthio)adenosine-5′-monophosphate [Compound 9]”: the Ki in test [3] is 1.2 µM. In the case of “2-(Propylthio)adenosine-5′-monophosphate [Compound 4]”, the Ki in test [1] is 1.27 µM; in test [2] (rat brain striatal membranes vs. [3H]CGS21680 (agonist radioligand)), 1.35 µM. `Nc1ncnc2c1ncn2[C@@H]1O[C@H](COP(=O)(O)O)[C@@H](O)[C@H]1O` [AMP, adenosine monophosphate, reference compound]: in test [4], the “Dephosphorylation (%) by ecto-5′-nucleotidase in comparison with AMP” value (“Dephosphorylation (%)” for short) stood at 100 ± 1.15%.

`Nc1nc(SC2CCCCC2)nc2c1ncn2[C@@H]1O[C@H](COP(=O)(O)O)[C@@H](O)[C@H]1O` [Compound 1, 2-(Cyclohexylthio)adenosine-5′-monophosphate]: the “Dephosphorylation (%)” value in test [4] is listed as 27.5 ± 1.45%. Regarding `Nc1nc(SCC2CCCCC2)nc2c1ncn2[C@@H]1O[C@H](COP(=O)(O)O)[C@@H](O)[C@H]1O` [Compound 2, 2-(Cyclohexylmethylthio)adenosine-5′-monophosphate], the “Dephosphorylation (%)” value in test [4] is 70.5 ± 1.17%. On the same count and under the same terms, the value for `Nc1nc(SCCC2CCCCC2)nc2c1ncn2[C@@H]1O[C@H](COP(=O)(O)O)[C@@H](O)[C@H]1O` [Compound 3, 2-(Cyclohexylethylthio)adenosine-5′-monophosphate] was 95% and 95.7 ± 1.15%; that for `CCCSc1nc(N)c2ncn([C@@H]3O[C@H](COP(=O)(O)O)[C@@H](O)[C@H]3O)c2n1` [Compound 4, 2-(Propylthio)adenosine-5′-monophosphate] was 46.8 ± 10.5%.

With `C=CCSc1nc(N)c2ncn([C@@H]3O[C@H](COP(=O)(O)O)[C@@H](O)[C@H]3O)c2n1` [Compound 5, 2-(Allylthio)adenosine-5′-monophosphate], the “Dephosphorylation (%)” value in test [4] is 0%.

Take `CCCCCCSc1nc(N)c2ncn([C@@H]3O[C@H](COP(=O)(O)O)[C@@H](O)[C@H]3O)c2n1` [Compound 6, 2-(Hexylthio)adenosine-5′-monophosphate]: in test [4], the “Dephosphorylation (%)” value worked out at 84.2 ± 2.61%.

`Nc1nc(SCc2ccccc2)nc2c1ncn2[C@@H]1O[C@H](COP(=O)(O)O)[C@@H](O)[C@H]1O` [Compound 8, 2-(Benzylthio)adenosine-5′-monophosphate]: in test [4], the “Dephosphorylation (%)” value is 0%. In the case of `Nc1nc(SCCc2ccccc2)nc2c1ncn2[C@@H]1O[C@H](COP(=O)(O)O)[C@@H](O)[C@H]1O` [Compound 9, 2-(Phenylethylthio)adenosine-5′-monophosphate], the “Dephosphorylation (%)” value in test [4] turned out to be 0%. `C#CCSc1nc(N)c2ncn([C@@H]3O[C@H](COP(=O)(O)O)[C@@H](O)[C@H]3O)c2n1` [Example No. 10, 2-Propargylthioadenosine-5′-monophosphate]: the Ki in test [1] was 0.994 µM; in test [3], 10.4 µM.

The term Ki denotes a dissociation constant, usually derived from enzyme kinetics or from competition with a known ligand.
